# Literature values in US20030039708A1, “NON-MA HUANG HERB WEIGHT LOSS PRODUCT” (priority 2001, published 2003).
# Read-outs that look alike come from different tables or passages of the source.
# Assays:
# [1] = obese patients
# [2] = not given; remark: listed apart in the source
# [3] = placebo group gained weight over the length of the trial
# [4] = in combination with diet, versus diet alone
# [5] = double-blind study
# [6] = placed in water
# [7] = in vivo
compound,measurement,setting,value
[Cr] [chromium],abdominal fat gained,placebo group gained 6.5%,1%
same,reduction of insulin resistance,"statistically significant, maintained at the end of eight months",40%
same,lean body mass,[1],increased
Glucomannan,tolerability,[2]; long term treatment of severe obesity,well tolerated
same,weight loss in relation to the fatty mass alone,"[2]; severely obese patients, diet plus glucomannan",more significant weight loss
same,body weight change,[3],weight loss
same,blood glucose,[4],more effective than diet alone
same,body weight,[4],more effective than diet alone
same,hunger and satiety sensation,[4],more effective than diet alone
same,total serum cholesterol,[4],more effective than diet alone
same,HDL cholesterol,[5],no significant increase
same,LDL cholesterol,[5],significant reductions
same,systolic blood pressure,[5],reduced
same,total cholesterol,[5],significant reductions
same,triglycerides,[5],significant reductions
same,swelling in water,[6],up to 17 times its original volume
O=C(O[C@@H]1Cc2c(O)cc(O)cc2O[C@@H]1c1cc(O)c(O)c(O)c1)c1cc(O)c(O)c(O)c1 [Epigallocatechin gallate],blood cholesterol,[7],significantly reduced
same,blood triglyceride,[7],significantly reduced
same,body weight,[7],significantly reduced
same,food intake,[7],significantly reduced
same,"growth of the prostate, uterus, and ovary",[7],significantly reduced
